{"source": "patent US9150528B2", "about": "“Compound having detrusor muscle-contracting activity and urethral sphincter muscle-relaxing activity” (ONO PHARMACEUTICAL CO., LTD., priority 2009, dated 2015)", "key": {"[1]": {"tested_on": "underactive bladder models", "assay": "Residual urinary volumes and bladder capacities in underactive bladder models (cystometry)", "assay_type": "in vivo, rat", "conditions": "0.01 mg/kg, oral, underactive bladder model rats", "description": "The underactive bladder models were constructed in accordance with the following procedure. Female Wistar rats (8 to 9 weeks age) were anesthetized by intraperitoneal administration of Somnopentyl (40 mg/kg), followed by dorsal shaving, and fixed in abdominal positions. Each of the dorsal areas was disinfected with chlorhexidine gluconate (5% hibitane liquid). The waist area was median-incised to expose the spinal column. After excision of the fifth lumbar spinous process, a silicone rubber was inserted into the sixth lumbar direction from a hole bored by a mini drill. For the purpose of avoiding infections, after completion of the surgical operation, benzylpenicillin potassium (25000 U/0.25 mL/body) was added dropwise to the incised area. The muscle and skin of the incised area were sutured with silk threads, and iodine tincture was applied to the sutured area. After the operation, maintenance of voiding was carried out by manual compressions three times daily. For the purpose of avoiding infections, potassium penicillin G (1.25 units/body) was administered subcutaneously. More than 5 days prior to cystometric evaluation, a catheter for cystometrogram was indwelled in the bladder. Anesthesia with sodium pentobarbital (40 mg/kg by intraperitoneal administration) and incision along the midline of the abdomen were carried out, followed by incision of the apex of the bladder. A catheter for cystometrogram filled with physiological saline was inserted into the bladder from a hole of the apical area, and fixed by ligation using silk suture threads. […]\nThe rats were anesthetized with ether and housed in a Bollmann cage 2 weeks after the construction of the models. To the front end of each of the bladder catheters, a pressure transducer via a three-way cock was connected, and the intravesical pressure was recorded using a strain pressure amplifier•recorder. […]\n[…] After 1 hr, physiological saline was perfused into the bladder at a flow rate of 2 mL/h and voiding parameters (bladder capacity and residual urinary volume) were measured. […] Voiding parameters were calculated for each cystometry. […]"}, "[2]": {"assay": "Systemic clearance after intravenous administration", "assay_type": "in vivo", "conditions": "plasma, cynomolgus monkey, 0.001 mg/mL/kg", "description": "Equimolar sodium hydroxide and injectable distilled water were added to each of the test compounds to prepare a 1 mg/mL aqueous solution. The aqueous solution was diluted with physiological saline until the concentration reached 0.001 mg/mL and was rapidly administered at a dose of 0.001 mg/mL/kg to cynomolgus monkey through the cephalic vein. Via heparinized syringes, 2 min, 5 min, 15 min, 30 min, 1 hr, 2 hr, 4 hr, 6 hr, 8 hr and 24 hr after administration, blood was drawn from the cephalic vein (non-administered sites). After centrifugation, blood plasma was sampled and stored at −80° C. before pretreatment. The blood plasma was pretreated by mixing with acetonitrile and centrifuging to remove proteins followed by measurement by LC/MS/MS. Changes of concentration in blood plasma was analyzed using WinNonlin4.0.1 to evaluate the systemic clearance of the test compound."}, "urethral sphincter": {"tested_on": "urethral sphincter", "assay": "Relaxation of isolated rat urethra specimens (Magnus system), phenylephrine-induced contraction", "assay_type": "cell-based", "conditions": "for Contractility of the urethral sphincter according to the compound concentration treated: rat urethra specimen", "description": "Rats were anesthetized with pentobarbital, followed by abdominal incision to remove the bladders and the urethras. The bladder bodies were cut in the longitudinal direction to prepare strip specimens with a size of about 10×3 mm. Additionally, each of the urethras was also cut in the longitudinal direction to prepare specimens with a size of about 10×3 mm. The prepared specimens were suspended in Krebs buffer (37° C., 5 mL), which was aerated with a mixed gas of 95% O2 and 5% CO2. The tension values of the specimens were measured using a Magnus system equipped with an isometric transducer and an amplifier, and the measured values were recorded on a computer via a data collection system.\nThe specimens were suspended with a load of about 0.5 g. More than 1 hr later, potassium chloride (100 mmol/L) was added to the suspension and the maximal contraction response was observed. After washing with Krebs buffer, the specimens were suspended with a load of about 0.5 g for stabilization. Thereafter, a phenylephrine (100 μmol/L) was added to the suspension to induce the contraction of the specimens. After stabilization of the contraction-inducing response, the test compound was added in a cumulative manner and the response was observed before and after the treatment of the drug."}, "cynomolgus monkeys": {"tested_on": "cynomolgus monkeys", "assay": "Effects on cardiac function in anesthetized cynomolgus monkeys", "assay_type": "in vivo, cynomolgus monkey", "conditions": "continuous intravenous 30 min", "description": "Cynomolgus monkeys were anesthetized with pentobarbital (at an initial dose of 20-30 mg/kg by intravenous administration; at a dose of 4-5 mg/kg/hr by intravenous continuous administration). A tracheal tube was inserted and experiments were carried out under artificial respiration (fresh air+pure oxygen, ventilatory volume: 10-15 mL/kg, ventilation frequency: 10-15 times/min). In the right lying position, the left thorax was opened between the fourth and fifth intercostal spaces. The […] (the origin of the left anterior descending artery or circumflex branch) and the origin of the ascending main artery were peeled off and transducers for blood flow measurement were located there. The blood flow rates were measured using an electronic blood flowmeter or an ultrasonic blood flowmeter. The blood pressures were measured using a pressure transducer in a state where a catheter was inserted into the right femoral artery. The left ventricular internal pressure was measured in a state where a catheter was inserted from the left carotid artery into the left ventricle. The electrocardiogram was measured using needle electrodes installed in the right armpit and the left thorax. After catheters for administration were inserted into the right and left cephalic veins and femoral veins, the test compound, pentobarbital (under anesthesia) or an aqueous solution (SOLITA T3 containing 1.2% NaHCO3) were administered therethrough. The test compound was continuously administered intravenously 30 min using a continuous infusion system. The blood pressure, left ventricular internal pressure, blood flow rate through the coronary artery and electrocardiogram data were simultaneously inputted to a PowerLab system (LabChart6, AD instruments) to measure/calculate average blood pressure, heart rate, average blood flow rate through the coronary artery, beat volume, stroke volume (beat volume/heart rate), maximum first deviation of the left ventricular internal pressure, total peripheral blood vessel resistance (average blood pressure/beat volume), cardiac performance (average blood pressure x beat volume) and double product (systolic arterial pressure x heart rate), which is indicative of myocardial oxygen consumption.\nThe averages of all evaluation parameters for 1 min were obtained before administration, immediately after administration, and 10 min, 20 min and 30 min after administration, and changes of the averages relative to the value measured before administration which is defined as 100% were calculated."}}}
{"smiles": "C[C@@](O)(C/C=C/[C@H]1CCC(=O)[C@@H]1CCSc1nc(C(=O)O)cs1)CCC(F)=C(F)F", "note": "[Compound 17, 2-[(2-{(1R,5R)-2-oxo-5-[(1E,4S)-7,8,8-trifluoro-4-hydroxy-4-methyl-1,7-octadien-1-yl]cyclopentyl}ethyl)thio]-1,3-thiazole-4-carboxylic acid]", "values": [{"measurement": "bladder capacity", "setting": "[1]; versus normal group", "result": "no effect"}, {"measurement": "residual urinary volume", "setting": "[1]; versus vehicle group", "result": "significant reduction"}, {"measurement": "clearance", "setting": "[2]", "result": 3.6, "unit": "mL/min/kg"}, {"measurement": "Contractility of the urethral sphincter according to the compound concentration treated", "setting": "urethral sphincter; 0 nmol/L", "result": "5 % of phenylephrine"}, {"measurement": "Contractility of the urethral sphincter according to the compound concentration treated", "setting": "urethral sphincter; 1 nmol/L", "result": "−2 % of phenylephrine"}, {"measurement": "Contractility of the urethral sphincter according to the compound concentration treated", "setting": "urethral sphincter; 10 nmol/L", "result": "−9 % of phenylephrine"}, {"measurement": "Contractility of the urethral sphincter according to the compound concentration treated", "setting": "urethral sphincter; 100 nmol/L", "result": "−36 % of phenylephrine"}, {"measurement": "Contractility of the urethral sphincter according to the compound concentration treated", "setting": "urethral sphincter; 1 μmol/L", "result": "−83 % of phenylephrine"}, {"measurement": "Contractility of the urethral sphincter according to the compound concentration treated", "setting": "urethral sphincter; 10 μmol/L", "result": "−89 % of phenylephrine"}, {"measurement": "effect on the urethral sphincter", "setting": "urethral sphincter; summary in words of Table 2", "result": "relaxed the urethral sphincter"}, {"measurement": "cardiac performance", "setting": "cynomolgus monkeys; 30 ng/kg/min", "result": "did not affect"}, {"measurement": "double product", "setting": "cynomolgus monkeys; 30 ng/kg/min", "result": "did not affect"}, {"measurement": "cardiac performance", "setting": "cynomolgus monkeys; 100 ng/kg/min", "result": "did not affect"}, {"measurement": "double product", "setting": "cynomolgus monkeys; 100 ng/kg/min", "result": "did not affect"}, {"measurement": "other cardiac function parameters, including the blood flow rate through the coronary artery", "setting": "cynomolgus monkeys", "result": "did not affect"}]}
